Assay results reported in PubChem BioAssay AID179 (DTP/NCI, 2004).
Where “and” joins values, the source holds several entries; their conditions need not be identical. Identical values can stand only once. Calls of active or inactive are those of the source.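 The calls were made as follows: active = compounds giving half or more protection of infected cells from virus-caused growth loss, again on retest; inactive = the rest.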 Where a SMILES comes first, the peptide text is derived from it. The star is where a group is joined. Cbz = O=C(OCc1ccccc1)*; OtBu = CC(C)(C)O*

Tested on: CEM cells HIV-1 protection, formazan growth assay
Assay: NCI AIDS Antiviral Assay
Conditions: for IC50: measured here: growth of uninfected CEM cells
Outline: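 CEM (human) cells, HIV-1 infected vs uninfected, 5-point dosing, formazan growth read-out. Retest threshold 50% protection.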

Row | Structure (SMILES) | EC50 | IC50 | outcome
1 | COc1cc([C@H]2Oc3cc([C@H]4Oc5cc(O)cc(O)c5C(=O)[C@@H]4O)ccc3O[C@@H]2CO)ccc1O | > 200 µM | 66.1 µM | –
2 | Brc1cccc(N=NN2CCCC2)c1 | > 200 µM | 36.3 µM | –
3 | COc1ccc([C@H]2CC(=O)N3CCCC3N2)cc1 (some centres not stated) | > 200 µM | > 200 µM | –
4 | COC(=O)C1Cc2ccc3c(c2C1=O)CCCC3 (configuration not stated) | > 200 µM | 186 µM | –
5 | Cc1c(C)c2ccc3oc4ccccc4c3c2oc1=O | > 38 µM | > 38 µM | –
6 | COC(=O)Cc1cc(=O)[nH]c2c1C(=O)CCC2 | – | – | inactive
7 | NC(=S)NC/C=C/Cl | > 200 µM | > 200 µM | –
8 | Cc1nc(C(N)=S)sc1C(=O)CC(=O)C(=O)Nc1nc2ccccc2[nH]1 | > 93.3 µM | > 93.3 µM | –
9 | CC(=O)OC1CSc2ccccc2N(C(C)=O)C1 (configuration not stated) | > 355 µM | > 355 µM | –
10 | NC(Cc1cc(O)c(O)c(S(=O)(=O)c2ccccc2)c1)C(=O)O (configuration not stated) | – | – | inactive
11 | NNC(=O)c1c/c(=N\NC(=O)CC(=O)Nc2ccccc2Cl)c2ccccc2o1 | > 1.74 µM | > 1.74 µM | –
12 | N=C1N(c2ccccc2)C(N)(N)SSC(N)(N)N1c1ccccc1 | > 141 µM | 17.4 µM | –
13 | Nn1c(C23CC4CC(CC(C4)C2)C3)n[nH]c1=S | 182 µM | > 200 µM | –
14 | S=C(NNc1ccccc1)SSSC(=S)NNc1ccccc1 | > 200 µM | 26.3 µM | –
15 | O=[N+]([O-])c1ccc(Cl)c(SSc2cc([N+](=O)[O-])ccc2Cl)c1 | > 39.8 µM | 14.1 µM | –
16 | NC(=S)N1N=C2c3ccccc3CC[C@@H]2[C@@H]1c1ccccc1 | > 34.7 µM | 6.03 µM | –
17 | C[N+](C)(C)CC1CCCCCCCCCCC1=O (configuration not stated) | 60.3 µM | 148 µM | –
18 | CCOC(=O)C(=O)NCCCN1CCOCC1 | > 1020 µM | > 1020 µM | –
19 | Clc1ccc(-c2nnc(C34CC5CC(CC(C5)C3)C4)o2)cc1 | > 200 µM | > 200 µM | –
20 | COc1ccccc1Nc1nc2c([nH]1)c(=O)n(C)c(=O)n2C | > 200 µM | > 200 µM | –
21 | CC(=O)/C(=C/n1c(=S)[nH]c2ccc([N+](=O)[O-])cc21)C(=O)Nc1ccc([N+](=O)[O-])cc1 | > 200 µM | 33.1 µM | –

Row | Structure (SMILES) | EC50 | IC50 | outcome
22 | OCC(O)C(O)C(O)C(O)c1nc2ccccc2s1 (configuration not stated) | > 126 µM | 97.7 µM | –
23 | CCOC(=O)c1c2ccc(/C=C/C(=O)OC)ccc-2c(C(=O)OCC)c1N | > 19.5 µM | > 19.5 µM | –
24 | COc1ccc(C([Se]c2ccccc2)C2C(=O)N(O)CC(=O)N2O)cc1 (configuration not stated) | – | – | inactive
25 | CN1C(=O)CCCCCCCCCCSc2ccccc21 | > 200 µM | 40.7 µM | –
26 | COC(=O)C(=O)C(C(=O)C(=O)Nc1ccccc1C(N)=O)c1nc2ccc([N+](=O)[O-])cc2[nH]c1=O (configuration not stated) | > 525 µM | 372 µM | –
27 | CCCNC(=O)N(C)C(=O)N1N=C(c2ccccc2)C1c1ccccc1 (configuration not stated) | 4.57 µM | 52.5 µM | –
28 | O=S(=O)(c1ccccc1)n1c(C(O)c2ccccc2)cc2ccccc21 (configuration not stated) | > 200 µM | 17.8 µM | –
29 | Nn1c(CCCCCCCCc2nnc(COc3ccc(Cl)cc3Cl)n2N)nnc1COc1ccc(Cl)cc1Cl | > 200 µM | 42.7 µM | –
30 | C#[N+]CCOP(=O)(OCC1OC(n2cc(C)c(=O)[nH]c2=O)CC1N=[N+]=[N-])O[C@H]1CC[C@@]2(C)C(=CC[C@H]3[C@@H]4CC[C@H](C(C)/C=C/C(CC)C(C)C)[C@@]4(C)CC[C@@H]32)C1 (some centres not stated) | 1.62 µM and 5.89 µM | > 200 µM | –
31 | CC(C)CC(NC(=O)C(Cc1ccccc1)NC(=O)C1CCCN1C(=O)OCc1ccccc1)C(=O)OC(C)(C)C (stereo not drawn) (Cbz-Pro-Phe-Leu-OtBu; configuration not given here) | > 6.61 µM | > 6.61 µM | –
32 | O=C(O)c1[nH]c(=O)[nH]c(=O)c1I | > 200 µM | > 200 µM | –
33 | Cc1cc(C2CCCCC2)n(O)c(=O)c1 | – | – | inactive
34 | O=C(Nc1ccc(C(=O)O)c(O)c1)c1ccc(C(=O)Nc2ccc(C(=O)O)c(O)c2)cc1 | > 200 µM | 89.1 µM | –
35 | COc1ccc(-c2nc(-c3cnccn3)n(C3OC(CO)C(O)C(O)C3O)n2)cc1 (configuration not stated) | > 200 µM | > 200 µM | –
36 | Cc1c(C(=O)O)c2cc3ccccc3cc2c(=O)n1C | > 200 µM | > 200 µM | –
37 | Cc1cc2c(=O)cc(-c3ccc(Cl)cc3Cl)oc2c(C(=O)O)c1C | – | – | inactive
38 | COC(=O)/C=C1\C[C@H]2O[C@@](O)(C1)[C@H](C)C(=O)O[C@H]1C[C@@H](C=C(C)C)O[C@@H](CC3(O)O[C@H](CC[C@H]2O)[C@@H](C)[C@]2(O)CC[C@@H](C)C(=O)C32)[C@H]1C (some centres not stated) | – | – | inactive
39 | NCCCN1CCN(CC(=O)O)CCN(CCCN)CCN(CC(=O)O)CC1 | > 200 µM | 4.37 µM | –
40 | CCC(=O)Nc1nc2c(ncn2C2OC(COC(=O)CC)C(OC(=O)CC)C2OC(=O)CC)c(=O)[nH]1 (configuration not stated) | > 355 µM | 309 µM | –
41 | CC[N+](C)(C)c1ccc(C(=C2C=CC(=[N+](C)C)C=C2)c2ccc(N(C)C)cc2)cc1 | – | – | inactive
42 | COc1cc(C2c3cc4c(cc3OC3(N5CCCC5)CCCC23)OCO4)cc(OC)c1OC (configuration not stated) | > 550 µM | 2.82 µM | –
